Data published in patent US8729013B2 (priority 2004, dated 2014).
Values after ≈ are worked out from the molar mass of the structure shown. Non-standard residues stand in square brackets, D forms with d. Residues, ends and D or L forms follow the SMILES beside them. Orn(N5-OH,N5-Ac) = CC(=O)N(O)CCC[C@H](N)C(=O)O

Legend:
Assay type in all cases: cell-based, Staphylococcus aureus
[1] = system: H1071 (RN6390 ΔfhuCBG::ermB); experiment: Siderophore plate bioassay (iron source utilization); details: TMS agar, 25 μM EDDHA; compared with wildtype
Experimental: Siderophore plate bioassays were performed essentially as described (Sebulsky et al. (2000) J. Bacteriol. 182:4394-4400). Briefly, 10^4 cells/mL were added to molten TMS agar containing 25 μM EDDHA as an iron chelating agent. Ten microliters of iron sources to be tested (DESFERAL® (50 μM), ferrichrome (50 μM), enterobactin (500 μM), staphylobactin (50 μM DESFERAL® equivalents), hemin (250 μg/mL), hemoglobin (2 mg/mL), FeCl3 (50 mM), or ferric citrate (5 mM)) were added to sterile 6 mm-diameter paper disks and placed on the surface of the plates. Growth promotion, as measured by the diameter of the growth halo around each disk, was determined after 48 h incubation, except for heme and hemoglobin, which were measured after 72 hours.

sirA and sirB mutants = experiment: Siderophore plate bioassay (growth promotion); details: data not shown
Experimental: Siderophore plate bioassays were performed essentially as previously described (Sebulsky et al. (2000) J. Bacteriol. 182:4394-4400) with the following modifications: TMS-agar was cooled to 45° C. before the addition of 10^5 cfu/ml of each strain to be tested. 2,2′-dipyridyl was added at a concentration of 550 μM for plates containing S. aureus Newman and Newman containing vehicle controls (e.g. pAW8 and pALC2073) or 400 μM 2,2′-dipyridyl for strains H803 (Newman sirA::Km) and H804 (Newman sirB::Tet) (see FIG. 1) with or without plasmids. Staphylobactin siderophore was isolated from RN6390 as previously described (Dale et al. (2004) Infect. Immun. 72:29-37). Briefly, S. aureus strains were vigorously shaken in TMS for 48 hours at 37° C. Culture supernatants were recovered by centrifugation in 100% methanol to 1/10 of the volume of the original culture supernatant and passed through Whatman No. 1 filter paper to remove particulate material. Rotary evaporation was used to reduce the volume before application to an LH-20 column (Amersham Biosciences). Fractions were collected, and those testing positive with chrome azurol S (CAS) shuttle solution and for biological activity in siderophore plate bioassays were dried, resuspended in water, and examined by high-performance liquid chromatography (HPLC). Analytical reversed-phase HPLC was used for final purification of siderophore. The column utilized was a Waters ODS2 SPherisorb column (4.6 by 150 mm). Trifluoroacetic acid (0.1%) in water represented solvent A whereas 0.1% trifluoroacetic acid in acetonitrile was used as solvent B. The chromatographic method used was as follows: at a flow rate of 0.75 ml/min, 6% B for 3.5 min., followed by a gradient of 6 to 60% B over 20 min. […] Staphylobactin was collected, dried, and rechromatographed to check for purity. The purity of Staphylobactin siderophore was confirmed by HPLC analysis. Aerobactin was purchased from EMC microcollections and used at a concentration of 1 μg/ml as a control in all bioassays.

[2] = system: S. aureus H803 (Newman sirA::Km); experiment: Minimum inhibitory concentration (MIC) in TMS; details: H803, bacteria grown in TMS
Excerpt: (§1) Streptonigrin is toxic to cells in the presence of intracellular iron and, therefore, cells importing iron are generally more sensitive to the toxic affects of this drug versus mutants debilitated in iron import (Yeowell et al. (1982) Antimicrob. Agents Chemother. 22:961-968). The minimum inhibitory concentration (MIC) of streptonigrin was approximately 4-fold lower for S. aureus Newman grown in TMS than for either S. aureus H803 or H804 grown in the same media (see Table 2).

[3] = system: S. aureus H804 (Newman sirB::Tet); experiment: Minimum inhibitory concentration (MIC) in TMS; details: H804, bacteria grown in TMS
Excerpt: as §1

S. aureus Newman = experiment: Minimum inhibitory concentration (MIC) in TMS
Excerpt: as §1

[4] = Staphylococcus aureus, NEWMAN, read-out: MIC Streptonigrin

Compound | utilization as iron source by H1071 [1] | growth promotion in mutants (sirA and sirB mutants) | further results
CC(=O)N(O)CCCC[C@H](NC(=O)CC(O)(CC(=O)N[C@@H](CCCCN(O)C(C)=O)C(=O)O)C(=O)O)C(=O)O [aerobactin] | unable to utilize | unaffected | 
ferric citrate | not significantly impaired | unaffected | 
hemoglobin | not significantly impaired |  | 
hemin | not significantly impaired |  | 
CC(=O)N[C@@H](CCCN([O-])C(=O)/C=C(\C)CCO)C(=O)OCC/C(C)=C/C(=O)N([O-])CCC[C@@H]1NC(=O)[C@H](CCCN([O-])C(=O)/C=C(\C)CCO)NC1=O.[Fe+3] [coprogen] | unable to utilize |  | 
CC(=O)N([O-])CCC[C@@H]1NC(=O)CNC(=O)CNC(=O)CNC(=O)[C@H](CCCN([O-])C(C)=O)NC(=O)[C@H](CCCN([O-])C(C)=O)NC1=O.[Fe+3] [ferrichrome] (cyclo(GGG[Orn(N5-OH,N5-Ac)][Orn(N5-OH,N5-Ac)][Orn(N5-OH,N5-Ac)])) | unable to utilize |  | 
CC(=O)N(O)CCCCCNC(=O)CCC(=O)N(O)CCCCCNC(=O)CCC(=O)N(O)CCCCCN [DESFERAL®, desferrioxamine B] | unable to utilize | unaffected | 
COC1=C(N)C(=O)c2nc(-c3nc(C(=O)O)c(C)c(-c4ccc(OC)c(OC)c4O)c3N)ccc2C1=O [Streptonigrin, streptonigrin] |  |  | MIC [2, 4]: 8 ng/mL (≈ 0.0158 µM); MIC [3, 4]: 8 ng/mL (≈ 0.0158 µM); MIC Streptonigrin (S. aureus Newman; Newman, bacteria grown in TMS): 2 ng/mL (≈ 0.00395 µM); MIC (S. aureus Newman; Staphylococcus aureus, Newman + 50 μM DESFERAL, TMS, read-out: MIC Streptonigrin): 2 ng/mL; MIC lower for Newman than for H803 or H804 (S. aureus Newman; grown in TMS): approximately 4 fold
c1ccc(-c2ccccn2)nc1 [2,2′-dipyridyl] |  |  | MIC 2,2′-dipyridyl [2]: 125 µM (≈ 19.5 µg/mL); MIC 2,2′-dipyridyl [3]: 125 µM (≈ 19.5 µg/mL); MIC higher for Newman than for H803 or H804 (S. aureus Newman): 4 fold; MIC 2,2′-dipyridyl (S. aureus Newman; Newman, bacteria grown in TMS): 500 µM (≈ 78.1 µg/mL)
O=C(N[C@H]1COC(=O)[C@@H](NC(=O)c2cccc(O)c2O)COC(=O)[C@@H](NC(=O)c2cccc(O)c2O)COC1=O)c1cccc(O)c1O [enterobactin] | not significantly impaired |  | 
